Assay results from patent US12077503B2, “Substituted cyclic amides and their use as herbicides” (FMC CORPORATION, priority 2015, dated 2024).

Legend:
Type in all cases: in vivo
rice (Oryra sativa) = assay: Test B flooded paddy test; details: Oryza sativa, 250 g ai/ha, Flood; 0 to 100 scale where 0 is no effect and 100 is complete control; read-out: Rice plant response rating
In short: (§1)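 Response scored visually against untreated controls, 0 = no effect and 100 = complete control, 13–15 d after treatment in the greenhouse. Compounds added to paddy water held 3 cm above soil surface. Treatment given at 2-leaf stage.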

[1] = system: ducksalad (Heteranthera limosa); assay: Test B flooded paddy test; details: Heteranthera limosa, 250 g ai/ha, Flood; 0 to 100 scale where 0 is no effect and 100 is complete control; read-out: Ducksalad plant response rating
In short: as §1

[2] = system: sedge, umbrella (small-flower umbrella sedge, Cyperus difformis); assay: Test B flooded paddy test; details: Cyperus difformis, 250 g ai/ha, Flood; 0 to 100 scale where 0 is no effect and 100 is complete control; read-out: Sedge, Umbrella plant response rating
In short: as §1

[3] = system: barnyardgrass (Echinochloa crus-galli); assay: Test B flooded paddy test; details: Echinochloa crus-galli, 250 g ai/ha, Flood; 0 to 100 scale where 0 is no effect and 100 is complete control; read-out: Barnyardgrass plant response rating
In short: as §1

[4] = system: pigweed (Amaranthus retroflexus); assay: Test A postemergence; details: Amaranthus retroflexus, post-emergence, 240 h; for pest or weed control at 125 g/ha: 125 g ai/ha, postemergence, visual injury vs untreated controls after approx. 10 d, 0 = no effect, 100 = complete control, read-out: Pigweed plant response rating (0 to 100 scale); for pest or weed control at 31 g/ha: Postemergence, 31 g ai/ha, visual injury after approx. 10 d, 0 to 100 scale, 0 no effect, 100 complete control, read-out: Plant response rating, Pigweed
In short: (§2)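 Visual injury, scored on a 0–100 scale relative to untreated controls, was recorded about 10 d after application. Treatments were a preemergence soil spray over planted seeds or a postemergence spray on plants at the one- to two-leaf stage, 2 to 10 cm tall, all in loam soil–sand blend in the greenhouse.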

[5] = system: ragweed (common ragweed, Ambrosia elatior); assay: Test A postemergence; details: Ambrosia artemisiifolia, post-emergence, 240 h; for pest or weed control at 125 g/ha: 125 g ai/ha, postemergence, visual injury vs untreated controls after approx. 10 d, 0 = no effect, 100 = complete control, read-out: Ragweed plant response rating (0 to 100 scale); for pest or weed control at 31 g/ha: Postemergence, 31 g ai/ha, visual injury after approx. 10 d, 0 to 100 scale, 0 no effect, 100 complete control, read-out: Plant response rating, Ragweed
In short: as §2

[6] = system: ryegrass, Italian (Italian ryegrass, Lolium multiflorum); assay: Test A postemergence; details: Lolium multiflorum, post-emergence, 240 h; for pest or weed control at 125 g/ha: 125 g ai/ha, postemergence, visual injury vs untreated controls after approx. 10 d, 0 = no effect, 100 = complete control, read-out: Ryegrass, Italian plant response rating (0 to 100 scale); for pest or weed control at 31 g/ha: Postemergence, 31 g ai/ha, visual injury after approx. 10 d, 0 to 100 scale, 0 no effect, 100 complete control, read-out: Plant response rating, Ryegrass, Italian
In short: as §2

[7] = system: Galium (catchweed bedstraw, Galium aparine); assay: Test A postemergence; details: Galium, post-emergence, 240 h; for pest or weed control at 125 g/ha: 125 g ai/ha, postemergence, visual injury on 0 to 100 scale (0 no effect, 100 complete control), approx. 10 d, read-out: Galium plant response rating; for pest or weed control at 31 g/ha: Postemergence, 31 g ai/ha, visual injury after approx. 10 d, 0 to 100 scale, 0 no effect, 100 complete control, read-out: Plant response rating, Galium
In short: as §2

[8] = system: blackgrass (Alopecurus myosuroides); assay: Test A postemergence; details: Alopecurus myosuroides, post-emergence, 240 h; for pest or weed control at 125 g/ha: 125 g ai/ha, postemergence, visual injury on 0 to 100 scale (0 no effect, 100 complete control), approx. 10 d, read-out: Blackgrass plant response rating; for pest or weed control at 31 g/ha: Postemergence, 31 g ai/ha, visual injury after approx. 10 d, 0 to 100 scale, 0 no effect, 100 complete control, read-out: Plant response rating, Blackgrass
In short: as §2

[9] = system: giant foxtail (Setaria faberii); assay: Test A postemergence; details: Setaria faberi, post-emergence, 240 h; for pest or weed control at 125 g/ha: 125 g ai/ha, postemergence, visual injury on 0 to 100 scale (0 no effect, 100 complete control), approx. 10 d, read-out: Foxtail, Giant plant response rating; for pest or weed control at 31 g/ha: Postemergence, 31 g ai/ha, visual injury after approx. 10 d, 0 to 100 scale, 0 no effect, 100 complete control, read-out: Plant response rating, Foxtail, Giant
In short: as §2

[10] = system: wheat (Triticum aestivum); assay: Test A postemergence; details: Triticum aestivum, post-emergence, 240 h; for plant injury at 125 g/ha: 125 g ai/ha, postemergence, visual injury vs untreated controls after approx. 10 d, 0 = no effect, 100 = complete control, read-out: Wheat plant response rating (0 to 100 scale); for plant injury at 31 g/ha: Postemergence, 31 g ai/ha, visual injury after approx. 10 d, 0 to 100 scale, 0 no effect, 100 complete control, read-out: Plant response rating, Wheat
In short: as §2

Kochia (Kochia scoparia) [11] = assay: Test A postemergence; details: Bassia scoparia, post-emergence, 240 h; for pest or weed control at 125 g/ha: 125 g ai/ha, postemergence, visual injury on 0 to 100 scale (0 no effect, 100 complete control), approx. 10 d, read-out: Kochia plant response rating; for pest or weed control at 31 g/ha: Postemergence, 31 g ai/ha, visual injury after approx. 10 d, 0 to 100 scale, 0 no effect, 100 complete control, read-out: Plant response rating, Kochia
In short: as §2

corn (Zea mays) = assay: Test A postemergence; details: Zea mays, post-emergence, 240 h; for plant injury at 125 g/ha: 125 g ai/ha, postemergence, visual injury on 0 to 100 scale (0 no effect, 100 complete control), approx. 10 d, read-out: Corn plant response rating; for Corn plant response rating (crop injury, 0 = no effect, 100 = complete kill) at 31 g/ha: Postemergence, 31 g ai/ha, visual injury after approx. 10 d, 0 to 100 scale, 100 complete control
In short: as §2

[12] = system: barnyardgrass (Echinochloa crus-galli); assay: Test A postemergence; details: Echinochloa crus-galli, post-emergence, 240 h; for pest or weed control at 125 g/ha: 125 g ai/ha, postemergence, visual injury on 0 to 100 scale (0 no effect, 100 complete control), approx. 10 d, read-out: Barnyardgrass plant response rating; for pest or weed control at 31 g/ha: Postemergence, 31 g ai/ha, visual injury after approx. 10 d, 0 to 100 scale, 0 no effect, 100 complete control, read-out: Plant response rating, Barnyardgrass
In short: as §2

[13] = system: pigweed (Amaranthus retroflexus); assay: Test A preemergence; details: Amaranthus retroflexus, pre-emergence, 240 h, 0 to 100 scale where 0 is no effect and 100 is complete control, read-out: Pigweed plant response rating; for pest or weed control at 31 g/ha: 31 g ai/ha, Preemergence; for pest or weed control at 125 g/ha: 125 g ai/ha, preemergence, approx. 10 d
[14] = system: ragweed (common ragweed, Ambrosia elatior); assay: Test A preemergence; details: Ambrosia artemisiifolia, pre-emergence, 240 h, 0 to 100 scale where 0 is no effect and 100 is complete control, read-out: Ragweed plant response rating; for pest or weed control at 31 g/ha: 31 g ai/ha, Preemergence; for pest or weed control at 125 g/ha: 125 g ai/ha, preemergence, approx. 10 d
In short: as §2

[15] = system: ryegrass, Italian (Italian ryegrass, Lolium multiflorum); assay: Test A preemergence; details: Lolium multiflorum, pre-emergence, 240 h, 0 to 100 scale where 0 is no effect and 100 is complete control, read-out: Ryegrass, Italian plant response rating; for pest or weed control at 31 g/ha: 31 g ai/ha, Preemergence; for pest or weed control at 125 g/ha: 125 g ai/ha, preemergence, approx. 10 d
In short: as §2

[16] = system: giant foxtail (Setaria faberii); assay: Test A preemergence; details: Setaria faberi, pre-emergence, 240 h, 0 to 100 scale where 0 is no effect and 100 is complete control, read-out: Foxtail, Giant plant response rating; for pest or weed control at 31 g/ha: 31 g ai/ha, Preemergence; for pest or weed control at 125 g/ha: 125 g ai/ha, preemergence, approx. 10 d
In short: as §2

Kochia (Kochia scoparia) [17] = assay: Test A preemergence; details: Bassia scoparia, pre-emergence, 240 h, 0 to 100 scale where 0 is no effect and 100 is complete control, read-out: Kochia plant response rating; for pest or weed control at 31 g/ha: 31 g ai/ha, Preemergence; for pest or weed control at 125 g/ha: 125 g ai/ha, preemergence, approx. 10 d
In short: as §2

[18] = system: barnyardgrass (Echinochloa crus-galli); assay: Test A preemergence; details: Echinochloa crus-galli, pre-emergence, 240 h, 0 to 100 scale where 0 is no effect and 100 is complete control, read-out: Barnyardgrass plant response rating; for pest or weed control at 31 g/ha: 31 g ai/ha, Preemergence; for pest or weed control at 125 g/ha: 125 g ai/ha, preemergence, approx. 10 d
In short: as §2

SMILES | pest or weed control at 250 g/ha (rice (Oryra sativa)) [%] | pest or weed control at 250 g/ha [1] [%] | pest or weed control at 250 g/ha [2] [%] | pest or weed control at 250 g/ha [3] [%] | pest or weed control at 125 g/ha [4] [%] | pest or weed control at 31 g/ha [4] [%] | pest or weed control at 125 g/ha [5] [%] | pest or weed control at 31 g/ha [5] [%] | pest or weed control at 125 g/ha [6] [%] | pest or weed control at 31 g/ha [6] [%] | pest or weed control at 125 g/ha [7] [%] | pest or weed control at 31 g/ha [7] [%] | pest or weed control at 125 g/ha [8] [%] | pest or weed control at 31 g/ha [8] [%] | pest or weed control at 125 g/ha [9] [%] | pest or weed control at 31 g/ha [9] [%] | plant injury at 125 g/ha [10] [%] | plant injury at 31 g/ha [10] [%] | pest or weed control at 125 g/ha (Kochia (Kochia scoparia) [11]) [%] | pest or weed control at 31 g/ha (Kochia (Kochia scoparia) [11]) [%] | other results
CSc1ccccc1NC(=O)[C@H]1C(=O)N(C)C[C@@H]1c1ccc(F)c(Oc2ccccc2)c1 [Compound 1142] | 0 | 0 | 0 | 0 | 30 | 0 | 0 | 0 | 0 | 0 | 30 | 0 | 0 | 0 | 60 | 0 | 0 | 0 | 0 | 0 | plant injury at 125 g/ha (corn (Zea mays)): 0%; Corn plant response rating (crop injury, 0 = no effect, 100 = complete kill) at 31 g/ha (corn (Zea mays)): 0%; pest or weed control at 125 g/ha [12]: 30%; pest or weed control at 31 g/ha [12]: 0%; pest or weed control at 31 g/ha [13]: 0%; pest or weed control at 125 g/ha [13]: 60%; pest or weed control at 31 g/ha [14]: 0%; pest or weed control at 125 g/ha [14]: 0%; pest or weed control at 31 g/ha [15]: 0%; pest or weed control at 125 g/ha [15]: 0%; pest or weed control at 31 g/ha [16]: 30%; pest or weed control at 125 g/ha [16]: 90%; pest or weed control at 31 g/ha (Kochia (Kochia scoparia) [17]): 0%; pest or weed control at 125 g/ha (Kochia (Kochia scoparia) [17]): 0%; pest or weed control at 31 g/ha [18]: 0%; pest or weed control at 125 g/ha [18]: 30%
CN1C[C@H](c2ccc(F)c(Oc3ccccc3)c2)[C@@H](C(=O)Nc2ccccc2S(C)(=O)=O)C1=O [Compound 1143] | 0 | 0 | 0 | 0 | 20 | 0 | 0 | 0 | 0 | 0 | 0 | 0 | 0 | 0 | 40 | 0 | 0 | 0 | 0 | 0 | plant injury at 125 g/ha (corn (Zea mays)): 0%; Corn plant response rating (crop injury, 0 = no effect, 100 = complete kill) at 31 g/ha (corn (Zea mays)): 0%; pest or weed control at 125 g/ha [12]: 50%; pest or weed control at 31 g/ha [12]: 0%; pest or weed control at 31 g/ha [13]: 0%; pest or weed control at 125 g/ha [13]: 0%; pest or weed control at 31 g/ha [14]: 0%; pest or weed control at 125 g/ha [14]: 0%; pest or weed control at 31 g/ha [15]: 0%; pest or weed control at 125 g/ha [15]: 0%; pest or weed control at 31 g/ha [16]: 20%; pest or weed control at 125 g/ha [16]: 80%; pest or weed control at 31 g/ha (Kochia (Kochia scoparia) [17]): 0%; pest or weed control at 125 g/ha (Kochia (Kochia scoparia) [17]): 0%; pest or weed control at 31 g/ha [18]: 0%; pest or weed control at 125 g/ha [18]: 40%
